In patent US20080269161A1, “Compositions and Methods Relating to Mitochondrial Hyperpolarization in Neurological Disease” (priority 2005, published 2008):
Entries after “also recorded” stand apart in the source; their conditions may differ.

Experiments:
[1] = system: mitochondrial membrane potential of rat cortical neurons; format: cell-based; conditions: neurotoxin alone
Method: Curve fits are non-formulaic software interpolations of the data points.
Changes in mitochondrial function that could be associated with the increased vesicular activity were evaluated. Mitochondria generate the energy for synaptic transmission in the form of ATP, and as a byproduct of this oxidative phosphorylation, they are also one of the primary producers of intracellular ROS. Two key mitochondrial parameters were examined in response to Tat and PAF: 1) mitochondrial membrane potential (ΔΨm) [as assessed by mitochondrial uptake of the lipophilic cationic dyes tetramethylrhodamine ethyl or methyl ester (TMRE or TMRM respectively)], and 2) ATP production (as measured by luciferase assay). The electronegative mitochondrial membrane potential provides the driving force for calcium buffering and ATP production by the mitochondria, and as such, ΔΨm is frequently used as an indicator of mitochondrial health and energetic capacity. Moreover, fluctuations in ΔΨm can trigger mitochondrial release of pro-apoptotic factors, an event most frequently associated with a loss of ΔΨm.
Monitoring alterations in ΔΨm with TMRM: In the relevant methods described herein, changes in mitochondrial membrane potential (ΔΨm) in response to Tat or PAF treatment is assessed by TMRM, which must equilibrate across the plasma membrane before entering the mitochondria; and in whole cell applications dye concentration in the mitochondria is dependent on both plasma membrane potential (ΔΨp) and AΨm. At sufficiently low dye concentrations (TMRM =1 nM, i.e. high cell/dye ratio) and normal membrane potentials, ≧95% of the dye is in the mitochondria, and ≦1% in the media, which results in an approximately 100× sensitivity of the dye to ΔΨm over ΔΨp, given equivalent changes in plasma or mitochondrial membrane potential [Rottenberg, H. and S. Wu, Biochim Biophys Acta, 1998. 1404(3): p. 393-40].
For these methods, primary rodent neurons are treated with reagent under normal culture conditions for the indicated time period, followed by removal of the media, 1×2 minute wash in pre-warmed 37° C. HBSS plus 10 mM glucose and 10 mM HEPES (HBSS+), then incubation in HBSS+ with 1 nM TMRE/M. Following equilibration of the dye for 20 minutes to ensure distribution across the mitochondrial membrane, the cells are imaged while remaining in the 1 nM TMRE/M solution, as is necessary for a continued dye equilibrium state. Random field images are taken using an Olympus IX-70 microscope and 40× objective (fluorescent excitation: 545; emission: 610) and Apogee KX32ME CCD camera, and the mean relative fluorescent unit (RFU) value of the neuronal soma and processes (excluding mitochondria deficient regions) is quantified using Scanalytics IPLab software.

[2] = system: CA1 pyramidal neurons in hippocampal slices; design: species or system rodent
Method: CA1 pyramidal neurons were exposed to 1 μM cPAF or vehicle for 30-60min and simultaneously imaged and recorded by whole-cell patch clamp before and after delivery of a high-frequency stimulus (HFS: three 1s, 100 Hz trains, every 20 s) applied to Schaffer collateral axons via a bipolar stimulating electrode planted in the stratum radiatum. (A) Dendrite beading in a cPAF-exposed cell 45min after HFS, with no disruption of dendrite or spine morphology in control cells. […] (C) Excitatory synaptic transmission between Shaffer collateral axons and CA1 pyramidal neurons is strongly potentiated following HFS in control slices. […] (EPSP traces at baseline and 40 min from representative control cell and cPAF-treated beaded cell are at right.) […]
Explant hippocampal slices are exposed to HIV-1 neurotoxins±agents that reverse mitochondrial hyperpolarization. Beading and LTP are then be measured:
Hippocampal slice preparation: Brains from anesthetized P14-28 rodents are rapidly removed and cooled in sucrose based artificial cerebrospinal fluid (ACSF) containing in mM: 110 sucrose, 60 NaCl, 3 KCl, 1.25 NaH2PO4, 28 NaHCO3, 10 D-glucose, 0.5 CaCl2, 7 MgSO4, 0.6 ascorbate. The brains are blocked and fixed to a specimen stage with cyanoacrylate. Coronal slices (250-400 μm in thickness) are cut with a vibroslicer (World Precision Instruments, Fla., USA) equipped with a Peltier cooling system. The middle four to six slices of each hippocampus (with the entorhinal cortex removed) are placed into a holding chamber prior to use.
Measuring dendritic beading and postsynaptic potentials in single CA1 cells in hippocampal slices: Dendritic arbors of individual CA1 pyramidal cells are imaged while simultaneously recording excitatory postsynaptic potentials in the same cell by patch clamp recordings in whole-cell configuration. Recording pipettes ([…] resistance) are pulled from 1.5 mm borosilicate glass using a horizontal Flaming/Brown micropipette puller (Sutter Instrument Co, Calif.), fire-polished, and filled with intracellular recording solution (in mM: KCl 20, potassium gluconate 130, EGTA 0.5, HEPES 10, MgSO4 2, ATP 2.5, GTP 0.5, pH 7.3). In order to visualize dendrites of the recorded cell, Alexa 568 hydrazide (30 μM) is included in the recording pipette and is injected by small negative current pulses for 15-20 min prior to recording in order to fill the dendritic arbor. Hippocampal slices are bathed in artificial CSF (containing, in mM: NaCl 125, KCl 2.5, NaH2PO4 1.25, NaHCO3 25, CaCl2 2, MgCl2 1, D-glucose 25, oxygenated and buffered with 5% CO2). Membrane potentials of CA1 pyramidal cells are recorded in current clamp mode, and postsynaptic potentials are evoked by test pulses of constant-current stimulation applied via a bipolar stimulating electrode placed 50-200 μm away in the stratum radiatum. Bicuculline (10 μM) is included in the bath to isolate excitatory postsynaptic potentials. After at least 10 min of consistent baseline recording, a high-frequency LTP induction stimulus (HFS, consisting of four 1 s, 100 Hz trains delivered every 15 s) is applied. EPSPs are recorded for 60 min following HFS. At the same time, dendrites are imaged at 40× magnification by fluorescence microscopy, using a shutter to limit fluorescent light exposure and prevent phototoxic injury to the slice. Serial images of dendrites are compared to detect development of focal swellings along dendritic shafts following HFS. Cells are scored as beaded if swellings develop along any of their dendrites.
Field potential recording and induction of LTP in hippocampal slices: Single-cell recordings are complemented by extracellular field potential recordings: while single cell recordings allow correlation of electrophysiologic data with dendritic beading in the same cell, extracellular recordings sample responses from populations of dendrites and are less invasive. […]

[3] = HIV-1 neurotoxin with vehicle treatment

`CCCCCCCCCCCCCCCCOC[C@H](COP(=O)([O-])OCC[N+](C)(C)C)OC(=O)NC` [PAF, carbamyl-platelet-activating factor] was tested, and the “effect on ΔΨm” value [1] was “dose dependent increases; also recorded: dose-dependent rise”, the “cells with beading elicited by HFS” value ([2]; 1 μM cPAF, 30-60 min) was “half of the cells” and the “potentiation of EPSPs after HFS, cells that did not develop dendrite beading” value ([2]; 1 μM cPAF, 30-60 min) was “smaller potentiation”. For the same compound, the “potentiation of EPSPs after HFS, cells whose dendrites did bead” value ([2]; 1 μM cPAF, 30-60 min) was “failure of long-term potentiation; also recorded: not potentiated at all”, the “Beading Prediction” value [2, 3] was “Occurs” and the “LTP Prediction” value [2, 3] was “Failure”. The Δψm [2, 3] was “Hyperpolarized”.
